Molecular target: T1, human mGlu5a receptor (Homo sapiens, UniProt P41594)
T1 construct: expressed in transfected cells
Experiment: Intracellular Ca2+ mobilization assay (mGlu5 PAM)
Assay type: cell-based
Settings: for Emax: HEK293, maximal response in % of the maximal stimulatory effect obtained with saturating concentrations of L-glutamate, read-out: Eff. (%); for EC50: HEK-293 cells stably transfected with human mGlu5a receptor, L-glutamate added at EC20 (typically around 80 μM) after 10-30 min pre-incubation with test compound, read-out: EC50 (nM) mGlu5PAM
Description: A monoclonal HEK-293 cell line stably transfected with a cDNA encoding for the human mGlu5a receptor was generated; for the work with mGlu5 Positive Allosteric Modulators (PAMs), a cell line with low receptor expression levels and low constitutive receptor activity was selected to allow the differentiation of agonistic versus PAM activity. Cells were cultured according to standard protocols (Freshney, 2000) in Dulbecco's Modified Eagle Medium with high glucose supplemented with 1 mM glutamine, 10% (vol/vol) heat-inactivated bovine calf serum, Penicillin/Streptomycin, 50 μg/ml hygromycin and 15 μg/ml blasticidin (all cell culture reagents and antibiotics from Invitrogen, Basel, Switzerland).
About 24 hrs before an experiment, 5×10^4 cells/well were seeded in poly-D-lysine coated, black/clear-bottomed 96-well plates. The cells were loaded with 2.5 μM Fluo-4AM in loading buffer (1×HBSS, 20 mM HEPES) for 1 hr at 37° C. and washed five times with loading buffer. The cells were transferred into a Functional Drug Screening System 7000 (Hamamatsu, Paris, France), and 11 half logarithmic serial dilutions of test compound at 37° C. were added and the cells were incubated for 10-30 min with on-line recording of fluorescence. Following this pre-incubation step, the agonist L-glutamate was added to the cells at a concentration corresponding to EC20 (typically around 80 μM) with on-line recording of fluorescence; in order to account for day-to-day variations in the responsiveness of cells, the EC20 of glutamate was determined immediately ahead of each experiment by recording of a full dose-response curve of glutamate.
Responses were measured as peak increase in fluorescence minus basal (i.e. fluorescence without addition of L-glutamate), normalized to the maximal stimulatory effect obtained with saturating concentrations of L-glutamate. Graphs were plotted with the % maximal stimulatory using XLfit, a curve fitting program that iteratively plots the data using Levenburg Marquardt algorithm. The single site competition analysis equation used was y=A+((B−A)/(1+((x/C)D))), where y is the % maximal stimulatory effect, A is the minimum y, B is the maximum y, C is the EC50, x is the log 10 of the concentration of the competing compound and D is the slope of the curve (the Hill Coefficient). From these curves the EC50 (concentration at which half maximal stimulation was achieved), the Hill coefficient as well as the maximal response in % of the maximal stimulatory effect obtained with saturating concentrations of L-glutamate were calculated.
A depression of the signal observed after addition of the EC20 concentration of L-glutamate was indicative of an inhibitory activity of the test compound.

T1 sequence (P41594 21-1180 isoform P41594-2 limits assumed): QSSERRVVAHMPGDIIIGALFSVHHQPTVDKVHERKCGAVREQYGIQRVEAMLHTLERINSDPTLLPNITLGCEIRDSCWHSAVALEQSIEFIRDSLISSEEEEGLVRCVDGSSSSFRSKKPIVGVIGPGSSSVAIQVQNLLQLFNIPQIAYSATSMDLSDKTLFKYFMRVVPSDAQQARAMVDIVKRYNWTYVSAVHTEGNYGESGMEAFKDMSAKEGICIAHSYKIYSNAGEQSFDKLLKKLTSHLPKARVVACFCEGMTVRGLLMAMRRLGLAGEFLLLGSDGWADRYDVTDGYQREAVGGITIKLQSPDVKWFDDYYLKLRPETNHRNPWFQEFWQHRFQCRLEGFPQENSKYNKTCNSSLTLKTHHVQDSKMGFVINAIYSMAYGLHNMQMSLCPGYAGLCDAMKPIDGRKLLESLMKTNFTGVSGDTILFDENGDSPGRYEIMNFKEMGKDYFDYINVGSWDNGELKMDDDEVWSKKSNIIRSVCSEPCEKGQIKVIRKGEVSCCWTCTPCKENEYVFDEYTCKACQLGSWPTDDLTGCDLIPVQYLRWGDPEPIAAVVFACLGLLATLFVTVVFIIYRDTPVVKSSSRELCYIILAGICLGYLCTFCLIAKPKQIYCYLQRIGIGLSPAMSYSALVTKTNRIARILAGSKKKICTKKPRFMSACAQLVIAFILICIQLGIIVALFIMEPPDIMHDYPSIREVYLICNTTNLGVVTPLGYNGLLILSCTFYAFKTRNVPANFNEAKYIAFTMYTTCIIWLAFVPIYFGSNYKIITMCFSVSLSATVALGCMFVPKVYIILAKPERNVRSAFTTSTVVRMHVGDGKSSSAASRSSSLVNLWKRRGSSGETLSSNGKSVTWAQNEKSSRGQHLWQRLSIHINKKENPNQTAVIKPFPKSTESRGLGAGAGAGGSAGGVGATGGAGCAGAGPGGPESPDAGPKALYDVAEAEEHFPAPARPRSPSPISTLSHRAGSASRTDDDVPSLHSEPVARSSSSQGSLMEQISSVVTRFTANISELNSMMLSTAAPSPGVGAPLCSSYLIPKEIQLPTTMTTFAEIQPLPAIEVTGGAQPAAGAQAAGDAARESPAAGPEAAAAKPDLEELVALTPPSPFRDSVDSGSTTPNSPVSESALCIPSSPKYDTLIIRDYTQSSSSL

Row | Emax (HEK-293 human mGlu5a cells) [%] | EC50 [nM] | Eff. (%) (maximal response in % of the maximal stimulatory effect obtained with saturating concentrations of L-glutamate, HEK-293 human mGlu5a cells) | Compound
1 | 87 | 19 | – | CN(C(=O)c1ccc(C#Cc2ccccc2)cn1)C(C)(C)C [Example 2, 5-Phenylethynyl-pyridine-2-carboxylic Acid tert-butyl-methyl-amide]
2 | 29 | 33 | – | Cc1cc(C#Cc2cc(F)ccc2F)cnc1C(=O)N(C)C(C)(C)C [Example 19, 5-(2,5-Difluoro-phenylethynyl)-3-methyl-pyridine-2-carboxylic Acid tert-butyl-methyl-amide]
3 | 81 | 36 | – | CC(C)(C)NC(=O)c1ncc(C#Cc2cccc(F)c2)cn1 [Example 10, 5-(3-Fluoro-phenylethynyl)-pyrimidine-2-carboxylic Acid tert-butylamide]
4 | – | 69 | 60 | CC(NC(=O)c1ccc(C#Cc2ccnc(Cl)c2)cn1)C(F)(F)F (single isomer, unassigned) [Example 60, (S) or (R)-5-(2-Chloro-pyridin-4-ylethynyl)-pyridine-2-carboxylic Acid (2,2,2-trifluoro-1-methyl-ethyl)-amide]
5 | 69 | 36 | – | CN(C(=O)c1ncc(C#Cc2ccccc2)cc1Cl)C(C)(C)C [Example 43, 3-Chloro-5-phenylethynyl-pyridine-2-carboxylic Acid tert-butyl-methyl-amide]
6 | 54 | 18 | – | CN(C(=O)c1ncc(C#Cc2cccc(F)c2)cc1F)C(C)(C)C [Example 21, 3-Fluoro-5-(3-fluoro-phenylethynyl)-pyridine-2-carboxylic Acid tert-butyl-methyl-amide]
7 | 42 | 12 | – | CN(C(=O)c1ccc(C#Cc2cc(F)ccc2F)cn1)C(C)(C)C [Example 5, 5-(2,5-Difluoro-phenylethynyl)-pyridine-2-carboxylic Acid tert-butyl-methyl-amide]
8 | 69 | 66 | – | CC(N(C)C(=O)c1ncc(C#Cc2ccccc2)cc1F)C(F)(F)F (racemic) [Example 51, (RS)-3-Fluoro-5-phenylethynyl-pyridine-2-carboxylic Acid methyl-(2,2,2-trifluoro-1-methyl-ethyl)-amide]
9 | 70 | 72 | – | CN(C(=O)c1ccc(C#Cc2cccnc2)cn1)C(C)(C)C [Example 6, 5-Pyridin-3-ylethynyl-pyridine-2-carboxylic Acid tert-butyl-methyl-amide]
10 | 32 | 35 | – | CN(C(=O)c1ncc(C#Cc2cc(F)ccc2F)cn1)C(C)(C)C [Example 15, 5-(2,5-Difluoro-phenylethynyl)-pyrimidine-2-carboxylic Acid tert-butyl-methyl-amide]
11 | 42 | 34 | – | CC1(C)CC(O)CCN1C(=O)c1ccc(C#Cc2cc(F)ccc2F)cn1 (racemic) [Example 64, (RS)-[5-(2,5-Difluoro-phenylethynyl)-pyridin-2-yl]-(4-hydroxy-2,2-dimethyl-piperidin-1-yl)-methanone]
12 | 29 | 11 | – | CN(C(=O)c1ncc(C#Cc2cncc(Cl)c2)cc1F)C(C)(C)C [Example 24, 5-(5-Chloro-pyridin-3-ylethynyl)-3-fluoro-pyridine-2-carboxylic Acid tert-butyl-methyl-amide]
13 | 38 | 79 | – | CC1(O)CCN(C(=O)c2ccc(C#Cc3cccc(F)c3)cn2)CC1 [Example 37, [5-(3-Fluoro-phenylethynyl)-pyridin-2-yl]-(4-hydroxy-4-methyl-piperidin-1-yl)-methanone]
14 | 38 | 10 | – | CN(C(=O)c1ncc(C#Cc2cc(F)ccc2F)cc1F)C(C)(C)C [Example 23, 5-(2,5-Difluoro-phenylethynyl)-3-fluoro-pyridine-2-carboxylic Acid tert-butyl-methyl-amide]
15 | 54 | 46 | – | CC1(C)CC(O)CCN1C(=O)c1ncc(C#Cc2cc(F)ccc2F)cc1F (racemic) [Example 68, (RS)-[5-(2,5-Difluoro-phenylethynyl)-3-fluoro-pyridin-2-yl]-(4-hydroxy-2,2-dimethyl-piperidin-1-yl)-methanone]

Further lines, the compound ahead of its results:

Row | Compound | Emax (HEK-293 human mGlu5a cells) [%] | EC50 [nM] | Eff. (%) (maximal response in % of the maximal stimulatory effect obtained with saturating concentrations of L-glutamate, HEK-293 human mGlu5a cells)
16 | CC1(C)CC(O)CCN1C(=O)c1ncc(C#Cc2cc(F)ccc2F)cn1 (racemic) [Example 66, (RS)-[5-(2,5-Difluoro-phenylethynyl)-pyrimidin-2-yl]-(4-hydroxy-2,2-dimethyl-piperidin-1-yl)-methanone] | 49 | 101 | –
17 | CN(C(=O)c1ccc(C#Cc2cccc(F)c2)cn1)C1(C)COC1 [Example 27, 5-(3-Fluoro-phenylethynyl)-pyridine-2-carboxylic Acid methyl-(3-methyl-oxetan-3-yl)-amide] | 53 | 24 | –
18 | CN(C(=O)c1ccc(C#Cc2ccc(F)cc2)cn1)C(C)(C)C [Example 4, 5-(4-Fluoro-phenylethynyl)-pyridine-2-carboxylic Acid tert-butyl-methyl-amide] | 83 | 18 | –
19 | CC1(C)CN(C(=O)c2ccc(C#Cc3cccc(F)c3)cn2)CCO1 [Example 35, (2,2-Dimethyl-morpholin-4-yl)-[5-(3-fluoro-phenylethynyl)-pyridin-2-yl]-methanone] | 57 | 46 | –
20 | CC(C)(NC(=O)c1ccc(C#Cc2ccnc(Cl)c2)cn1)C(F)(F)F [Example 54, 5-(2-Chloro-pyridin-4-ylethynyl)-pyridine-2-carboxylic Acid (2,2,2-trifluoro-1,1-dimethyl-ethyl)-amide] | 80 | 37 | –
21 | CN(C(=O)c1ccc(C#Cc2cccc(Cl)c2)cn1)C(C)(C)C(F)(F)F [Example 56, 5-(3-Chloro-phenylethynyl)-pyridine-2-carboxylic Acid methyl-(2,2,2-trifluoro-1,1-dimethyl-ethyl)-amide] | 29 | 22 | –
22 | CC(NC(=O)c1ccc(C#Cc2ccnc(Cl)c2)cn1)C(F)(F)F (racemic) [Example 57, (RS)-5-(2-Chloro-pyridin-4-ylethynyl)-pyridine-2-carboxylic Acid (2,2,2-trifluoro-1-methyl-ethyl)-amide] | 42 | 22 | –
23 | CN(C(=O)c1ncc(C#Cc2cccc(F)c2)cc1F)C1(C)CC1 [Example 42, 3-Fluoro-5-(3-fluoro-phenylethynyl)-pyridine-2-carboxylic Acid methyl-(1-methyl-cyclopropyl)-amide] | 35 | 33 | –
24 | CN(C(=O)c1ccc(C#Cc2cccc(Cl)c2)cn1)C1(C(F)(F)F)CC1 [Example 33, 5-(3-Chloro-phenylethynyl)-pyridine-2-carboxylic Acid methyl-(1-trifluoromethyl-cyclopropyl)-amide] | 37 | 33 | –
25 | CC(C)(C)NC(=O)c1ncc(C#Cc2ccc(F)cc2)cn1 [Example 9, 5-(4-Fluoro-phenylethynyl)-pyrimidine-2-carboxylic Acid tert-butylamide] | 90 | 127 | –
26 | CN(C(=O)c1ncc(C#Cc2ccccc2)cc1F)C1(C)COC1 [Example 50, 3-Fluoro-5-phenylethynyl-pyridine-2-carboxylic Acid methyl-(3-methyl-oxetan-3-yl)-amide] | 67 | 40 | –
27 | CN(C(=O)c1ccc(C#Cc2cncc(Cl)c2)cn1)C(C)(C)C [Example 7, 5-(5-Chloro-pyridin-3-ylethynyl)-pyridine-2-carboxylic Acid tert-butyl-methyl-amide] | 33 | 17 | –
